From US7041463B2, “Orthologues of human receptors and methods of use” (Pharmacopeia Drug Discovery, Inc., priority 2000, dated 2006)

Tests used:
[1] = target: T1, cholecystokinin-B receptor (Homo sapiens, UniProt P32239); details: human receptor with valine 319 substituted by leucine vs human receptor; cited from earlier work
T1 sequence (P32239 1-447 V349L): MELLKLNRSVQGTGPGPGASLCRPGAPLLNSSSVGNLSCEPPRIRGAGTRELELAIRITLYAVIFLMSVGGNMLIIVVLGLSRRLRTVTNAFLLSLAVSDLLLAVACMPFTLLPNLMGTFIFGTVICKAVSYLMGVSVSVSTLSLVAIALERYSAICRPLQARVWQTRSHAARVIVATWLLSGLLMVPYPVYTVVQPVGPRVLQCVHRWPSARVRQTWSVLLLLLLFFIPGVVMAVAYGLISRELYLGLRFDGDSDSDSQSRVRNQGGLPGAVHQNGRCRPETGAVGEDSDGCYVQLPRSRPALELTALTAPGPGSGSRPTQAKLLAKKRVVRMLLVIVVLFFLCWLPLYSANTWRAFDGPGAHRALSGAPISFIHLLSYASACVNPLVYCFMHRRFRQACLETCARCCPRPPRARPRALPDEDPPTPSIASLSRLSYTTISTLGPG

[2] = target: pig B1; experiment: [3H]-des-Arg10-kallidin binding, 293E membranes, pig B1; details: 0.6 nM [3H]-dAKd
Sequence of pig B1 (as listed by the source): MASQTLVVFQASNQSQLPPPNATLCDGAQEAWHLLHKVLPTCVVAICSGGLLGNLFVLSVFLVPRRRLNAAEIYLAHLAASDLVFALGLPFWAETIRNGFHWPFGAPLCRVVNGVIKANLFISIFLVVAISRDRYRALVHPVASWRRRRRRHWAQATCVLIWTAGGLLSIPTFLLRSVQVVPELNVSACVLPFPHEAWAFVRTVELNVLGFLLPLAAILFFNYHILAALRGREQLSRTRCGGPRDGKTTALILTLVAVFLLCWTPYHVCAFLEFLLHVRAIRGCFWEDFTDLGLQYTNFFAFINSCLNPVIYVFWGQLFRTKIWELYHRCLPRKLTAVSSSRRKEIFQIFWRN
Experimental: (§1) Membrane preparations for use in accordance with the methods of the present invention were generated as follows. 293E cells expressing B1 receptors were harvested and pelleted. Cells were washed once with PBS and once with a membrane buffer (for example, 10 mM HEPES pH 7.5, 1 μM phosphoramidon, 3 μM amastatin, 1 μM captopril, 2 μM dithiothreitol (DTT)). Cells were resuspended in membrane buffer and Dounce homogenized on ice 35 times. The membranes were collected by centrifugation at 15,000×g for 30 min. at 4° C. and resuspended in membrane buffer containing 0.2% bovine serum albumin (BSA) at a final concentration of approximately 5×10^7 cell equivalents per ml. Aliquots were flash frozen and stored at −80° C. Frozen aliquots were subsequently thawed, diluted, and sonicated on ice using a Branson Sonifier® 250 (4×5 sec, 40% output).
(§2) Prior to use in a binding assay, a membrane preparation is “calibrated” as described below to determine the amount of membrane preparation to be used. […]
(§3) The method of the present invention employs a binding assay such as the one described below. […] 50 μl of scintillation fluid was added to each well and plates were counted in a Wallac Microbeta® TriLux for 10 min. per well.

[3] = target: rhesus macaque B1 receptor; experiment: [3H]-des-Arg10-kallidin binding, 293E membranes, rhesus macaque B1; design: species or system rhesus macaque (Macaca mulatta); details: 0.6 nM [3H]-dAKd
Sequence of rhesus macaque B1 receptor (as listed by the source): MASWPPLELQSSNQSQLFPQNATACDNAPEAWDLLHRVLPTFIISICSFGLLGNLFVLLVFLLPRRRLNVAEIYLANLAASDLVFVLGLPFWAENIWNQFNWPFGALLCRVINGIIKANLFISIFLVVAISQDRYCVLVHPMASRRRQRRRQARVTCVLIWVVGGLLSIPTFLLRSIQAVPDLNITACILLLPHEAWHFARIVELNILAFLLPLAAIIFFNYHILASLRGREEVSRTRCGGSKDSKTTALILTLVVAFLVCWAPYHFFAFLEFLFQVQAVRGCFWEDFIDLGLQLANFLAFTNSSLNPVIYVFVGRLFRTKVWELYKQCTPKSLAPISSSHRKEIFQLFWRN
Experimental: as §1, §2, §3

[4] = target: T2, dog B1 (Canis lupus familiaris, UniProt Q9BDQ5, D322E/F324Y/R319K); experiment: [3H]-des-Arg10-kallidin binding, 293E membranes, dog B1 (canine/human chimera); details: 0.6 nM [3H]-dAKd
T2 construct: the chimeric canine/human receptor described above was used in the experiments described below; C-terminal cytoplasmic tail of human bradykinin B1 receptor (fusion partner of the chimera); expressed in transfected cells; host or cells: 293-EBNA (293E) cells, membranes
T2 sequence (Q9BDQ5 with tags, fused parts or gaps R319K/D322E/F324Y): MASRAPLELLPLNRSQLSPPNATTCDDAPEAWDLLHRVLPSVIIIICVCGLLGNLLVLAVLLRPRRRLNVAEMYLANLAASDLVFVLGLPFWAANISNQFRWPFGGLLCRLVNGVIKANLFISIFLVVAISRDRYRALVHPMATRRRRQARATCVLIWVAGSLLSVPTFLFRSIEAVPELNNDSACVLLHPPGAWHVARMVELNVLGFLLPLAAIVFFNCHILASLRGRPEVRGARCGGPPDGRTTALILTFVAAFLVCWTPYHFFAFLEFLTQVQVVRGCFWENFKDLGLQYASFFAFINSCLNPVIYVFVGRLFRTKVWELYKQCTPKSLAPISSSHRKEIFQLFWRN
Description: Additionally, a canine/human chimeric bradykinin B1 receptor comprising amino acids 1 to 320 of the canine sequence and amino acids 319–353 of human bradykinin B1 receptor was generated. Any number of chimeric molecules, for example, a chimera comprising amino acids 1–315 of the canine sequence and amino acids 314–353 of the human sequence can be used.
as §1, with “Frozen aliquots were subsequently thawed, diluted, and sonicated on ice using a Branson Sonifier® 250 (4×5 sec, 40% output).” left out
as §3

[5] = target: T3, rabbit B1 (Oryctolagus cuniculus, UniProt P48748); experiment: [3H]-des-Arg10-kallidin binding, 293E membranes, rabbit B1; details: 0.6 nM [3H]-dAKd
T3 construct: expressed in transfected cells; host or cells: 293-EBNA (293E) cells, membranes
T3 sequence (P48748 1-352): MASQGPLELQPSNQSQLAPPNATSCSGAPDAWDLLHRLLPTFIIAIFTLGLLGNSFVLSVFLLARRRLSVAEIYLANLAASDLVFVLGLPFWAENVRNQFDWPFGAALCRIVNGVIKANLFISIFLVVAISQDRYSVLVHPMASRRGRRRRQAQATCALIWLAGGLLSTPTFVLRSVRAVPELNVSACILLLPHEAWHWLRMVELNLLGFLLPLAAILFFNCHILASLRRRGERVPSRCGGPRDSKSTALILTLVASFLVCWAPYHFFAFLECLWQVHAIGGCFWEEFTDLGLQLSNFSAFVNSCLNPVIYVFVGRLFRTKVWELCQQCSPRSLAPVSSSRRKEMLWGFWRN
Experimental: as §1, §2, §3

[6] = target: T4, human B1 receptor (Homo sapiens, UniProt P46663); experiment: [3H]-des-Arg10-kallidin binding, 293E membranes, human B1; details: 0.6 nM [3H]-dAKd
T4 construct: expressed in transfected cells; host or cells: 293-EBNA (293E) cells, membranes
T4 sequence (P46663 1-353): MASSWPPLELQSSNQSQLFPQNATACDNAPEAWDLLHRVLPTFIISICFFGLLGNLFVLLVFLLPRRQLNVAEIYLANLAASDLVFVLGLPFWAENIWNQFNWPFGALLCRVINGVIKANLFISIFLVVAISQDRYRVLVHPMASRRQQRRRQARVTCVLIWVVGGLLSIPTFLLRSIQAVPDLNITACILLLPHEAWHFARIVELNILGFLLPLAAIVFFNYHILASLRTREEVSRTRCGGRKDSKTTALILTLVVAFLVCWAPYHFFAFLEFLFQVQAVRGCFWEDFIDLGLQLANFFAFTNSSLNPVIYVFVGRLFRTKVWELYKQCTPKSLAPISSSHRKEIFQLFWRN
Description: Prior to use in a binding assay, a membrane preparation is “calibrated” as described below to determine the amount of membrane preparation to be used. A frozen sample of a membrane preparation is thawed and the preparation diluted in assay buffer to obtain several different concentrations of membranes, for example, 1:5, 1:10, 1:20, 1:40 and so on. The diluted membrane preparation is sonicated in a bath style sonicator for 15 seconds at room temperature. […]

[7] = target: tree shrew B1 receptor; experiment: [3H]-des-Arg10-kallidin binding, 293E membranes, tree shrew B1; design: species or system tree shrew (Tupaia minor); details: 0.6 nM [3H]-dAKd
Sequence of tree shrew B1 receptor (as listed by the source): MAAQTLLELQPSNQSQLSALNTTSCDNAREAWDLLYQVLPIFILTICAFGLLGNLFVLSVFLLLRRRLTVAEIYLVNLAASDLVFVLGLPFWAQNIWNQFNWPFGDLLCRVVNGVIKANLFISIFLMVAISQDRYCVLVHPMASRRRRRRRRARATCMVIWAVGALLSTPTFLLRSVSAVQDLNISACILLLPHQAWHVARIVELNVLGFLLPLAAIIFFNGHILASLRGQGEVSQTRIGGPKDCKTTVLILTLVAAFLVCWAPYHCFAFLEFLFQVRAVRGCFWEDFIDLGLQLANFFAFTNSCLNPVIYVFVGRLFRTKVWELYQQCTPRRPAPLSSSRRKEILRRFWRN
Experimental: as §1, §2, §3

[8] = target: cloned rat NK1 receptor (Rattus norvegicus, UniProt P14600); details: cited from earlier work
Sequence of cloned rat NK1 receptor (P14600 whole entry): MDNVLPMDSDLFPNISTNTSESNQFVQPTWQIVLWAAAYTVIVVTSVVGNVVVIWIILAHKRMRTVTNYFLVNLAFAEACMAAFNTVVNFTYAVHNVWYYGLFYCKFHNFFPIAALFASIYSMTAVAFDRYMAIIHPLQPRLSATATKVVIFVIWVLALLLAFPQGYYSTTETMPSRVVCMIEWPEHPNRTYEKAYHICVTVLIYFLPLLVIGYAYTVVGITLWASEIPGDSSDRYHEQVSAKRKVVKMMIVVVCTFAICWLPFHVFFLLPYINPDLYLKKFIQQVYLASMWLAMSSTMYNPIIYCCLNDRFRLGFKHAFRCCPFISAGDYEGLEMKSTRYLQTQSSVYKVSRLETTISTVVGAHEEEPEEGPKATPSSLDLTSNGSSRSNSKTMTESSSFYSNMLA

## Cc1cccc(NC(=O)N[C@@H]2N=C(c3ccccc3)c3ccccc3N(C)C2=O)c1 [Compound L365260]
[1]
  decrease of binding affinity: 20 fold

## [des-Arg^9]BK (RPPGFSPF) [dABk]
[2]
  affinity (K1) at pig B1, in words: weak activity
[3]
  affinity (K1) at rhesus macaque B1, in words: inactivity
[4]
  affinity (K1) at dog B1, in words: low nM potency
[5]
  affinity (K1) at rabbit B1, in words: weak activity
[6]
  affinity (K1) at human B1, in words: inactivity
[7]
  affinity (K1) at tree shrew B1, in words: inactivity

## COc1ccccc1CN[C@H]1C2CCN(CC2)[C@H]1C(c1ccccc1)c1ccccc1 [CP-96,345]
[8]
  IC50: 40 nM
